“Also recorded” adds a separate entry of the source.
Columns and labels:
[1] = molecular target: T1, SHP2 (Homo sapiens, UniProt Q06124); assay: Active site protection by vanadate (jump-dilution assay); format: biochemical; details: role: inhibitor, 10 min, diluted 100-fold into 10 mM pNPP
T1 construct: 4× solution of SHP2 (residues 224-528)
T1 sequence (Q06124 224-528): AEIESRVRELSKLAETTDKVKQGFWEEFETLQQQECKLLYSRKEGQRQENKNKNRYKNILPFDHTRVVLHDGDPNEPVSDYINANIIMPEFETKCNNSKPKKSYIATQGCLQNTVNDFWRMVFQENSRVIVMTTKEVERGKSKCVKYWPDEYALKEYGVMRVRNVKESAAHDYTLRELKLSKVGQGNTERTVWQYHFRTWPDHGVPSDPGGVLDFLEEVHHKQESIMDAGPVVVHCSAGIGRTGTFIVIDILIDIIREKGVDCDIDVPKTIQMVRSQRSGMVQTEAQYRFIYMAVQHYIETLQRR
Description: To further support a covalent mechanism of action and engagement of the SHP2 active site, a jump-dilution assay was employed both in the presence and absence of the known reversible PTP active site competitive inhibitor vanadate (VO4) (Seiner, D. R. et al., Chem. Res. Toxicol. 2007, 20, 1315-1320) In this experiment, SHP2 was co-incubated with 100 μM compound (10) and 500 μM vanadate or DMSO for 10 minutes. The enzyme-inhibitor complex was then rapidly diluted 100-fold into a buffered solution containing 10 mM pNPP, and the absorbance at 405 nm was immediately monitored over time to determine the remaining enzymatic activity.
A solution containing 500 μM Vanadate or DMSO, 4 μM SHP2, and 100 μM (10) or DMSO in DMG buffer (with no EDTA) was added to a clear flat-bottom 96-well plate (Corning Costar Assay Plate #9017). This was allowed to incubate for 10 minutes at 25° C. before transferring 3 μL to a new clear flat-bottom 96-well plate (Corning Costar Assay Plate #9017). To each well was added 297 μL of 10.1 mM pNPP in DMG buffer (with EDTA) and the plate Plates were then read for absorbance at 405 nm using a CLARIOstar^Plus plate reader (BMG Labetch). Data was imported into Graphpad Prism 9 (GraphPad Software, San Diego, CA (US)), and a baseline correction analysis was completed for fitting purposes.

[2] = molecular target: T2, SHP2 (residues 224-528) (Homo sapiens, UniProt Q06124); assay: Kinetic characterization of SHP2 inactivation (pNPP cleavage progress curves, kobs, kinact/KI); format: biochemical
T2 construct: 4× solution of SHP2 (residues 224-528)
T2 sequence (Q06124 224-528): T1 sequence (Q06124 224-528)
From the text: Covalent inhibitors work by forming a covalent bond with a reactive functional group in the target enzyme. Consequently, the kinetics for enzyme inactivation by a covalent inhibitor is not an equilibrium process as with reversible inhibition. The potency of a reversible inhibitor can be measured by its IC50 value. Unlike reversible inhibitors, where inhibition is only concentration-dependent, covalent inhibitors show both time- and concentration-dependent target inhibition (a covalent bond formation is a time-dependent event). If sufficient time is available, covalent inhibitors can completely neutralize the target, rather than go to equilibrium. As a result, the potency and selectivity of a covalent inhibitor cannot be determined by IC50 values; instead, the rate of inactivation of the target (kinact) and the inhibition constant (KI) were determined. The bimolecular rate constant (kinact/KI), was chosen to rank the potency of covalent inhibitors (Ruddraraju et al., 2017, Molecular Biosystems 13(7), 1257-1279).
PTPs catalyze the dephosphorylation of tyrosine-phosphorylated protein substrates through a conserved mechanism that relies on a catalytic cysteine residue (Zhang, Z.-Y et al., 2003, Prog. Nucleic Acid Research Molecular Biology, 73, 171-220). This provides a mechanistic rationale for the assessment of electrophilic Michael acceptors, such as those synthesized in the present disclosure as potential covalent inhibitors of the SHP2. The enzymatic cleavage of para-nitrophenyl phosphate by SHP2 was measured over time in the presence of 100 μM inhibitor or DMSO, to determine the observed first-order rate constant (kobs). Based on kobs values, compounds were further evaluated in a dose-dependent manner to determine the second-order rate constant (kinact/KI) indicating the overall efficacy of the compounds, which was used to assess the structure-activity relationship (SAR) for the analogs of interest and design additional analogs (see Table 1). […] It has been known that modifications to the electronegativity of substituents proximal to electrophilic centers alter the reactivity of the electrophile.
The efficacy of covalent inhibitors can be broken down into the initial reversible binding of the compounds (KI), and the rate of covalent bond formation and enzyme inactivation (kinact). These two constants can be used individually, or as a ratio to determine the overall efficacy of the inhibitor's efficacy. To investigate the contribution to reversible binding compound (34) was evaluated, which lacks the carbonyl of the Michael acceptor to prevent the formation of a covalent adduct.
Inhibitors were evaluated for their ability to inhibit the reaction catalyzed by SHP2 using para-nitrophenyl phosphate (pNPP) as a substrate at pH 7 and 25° C. A 2× solution of inhibitor was diluted into DMG buffer (50 mM 3,3-dimethylglutarate pH 7.0, 1 mM EDTA, ionic strength adjusted to 150 mM using NaCl) was added to a clear flat-bottom 96-well plate (Corning Costar Assay Plate #9017), and serially diluted 1.5-fold, resulting in 100 μL volumes of varying inhibitor concentrations. To this was added a 4× solution of pNPP (12 mM) in DMG buffer. The reaction was initialized by the addition of a 4× solution of SHP2 (residues 224-528), resulting in a final solution of: inhibitor (100-0 μM), pNPP (3 mM), and SHP2 (100 nM). The plate was then monitored for a change in absorbance ab […] using a CLARIOstar^Plus plate reader (BMG Labetch) over the course of an hour. The resulting progress curves for each inhibitor were imported into Graphpad Prism 9 (GraphPad Software, San Diego, CA (USA)), and a baseline correction analysis was completed for fitting purposes. Each curve was fit to the equation Y=V0×(1−e^−kobs*t)/kobs.^[17.22] The kobs values were then plotted against inhibitor concentrations. If the resulting graph was linear, the kinact/KI value was determined by the slope of that line and the 95% confidence interval (95% CI). […]

[3] = molecular target: T1, SHP2; assay: Covalent adduct formation on SHP2 by intact protein LC-MS; format: binding; details: 10 μM SHP2, 60 minutes
Description: To validate covalent modification of SHP2 by the active compounds, adduct formation on SHP2 was measured by intact protein liquid chromatography-mass spectrometry (LC-MS). With intact protein LC-MS, multiply charged states of the protein species can be deconvoluted to achieve the total mass(es). Compounds were incubated with 10 μM SHP2 for 60 minutes before being quenched with acetonitrile for LC-MS analysis by electrospray ionization (ESI) in positive mode. […] (33), and (42) (FIGS. 3A and 3B).
To unfold protein and quench protein-ligand reactivity, 10 μL of treated or untreated 10 μM SHP2 was diluted in 40 μL of 80% (v/v) formic acid initially, followed by 150 μL of LC-MS buffer (50/50 water/acetonitrile with 0.1% formic acid). 20-25 pmol per sample was analyzed by LC/MS (Agilent 1260 Infinity II with a ZORBAX Rapid Resolution High Definition 300 Å Stable Bond C3, 2.1×100 mm, 1.8 μm column) attached to an Agilent 6129 quadrupole mass spectrometer in positive ion mode. The column was held at 45° C. Mobile solution A was 0.1% formic acid in water, and mobile phase B was 0.1% formic acid in acetonitrile. The gradient used was hold at 10% B for 5 min, increase linearly to 80% B for 15 min, and then hold at 80% B for 5 min. The mass data were collected at a range of 600-1500 m/z. Raw data were processed using MestReNova. For all samples, the deconvoluted mass was calculated by taking the m/z range of 730-1100 Da, and deconvoluted mass range from 36500-37200 Da. An abundance threshold of 10% and tolerance of 30 ppm was set for deconvolution. Unreacted SHP2's total deconvoluted mass was 36602±10 Da; for each deconvolution, the highest deconvoluted mass intensity was utilized as the mass pivot point to determine and identify reacted SHP2 adducts. To calculate the percent SHP2 reacted, the relative abundance intensity of reacted SHP2 was divided by the total relative abundance intensities of unreacted and reacted SHP2.

kinact/KI ([2]; pH 7, role: inhibitor, substrate pNPP 3 mM, 100 nM SHP2, pH 7.0, 25° C, read-out: kinact/KI (converted))	fold increase in efficacy compared to PVSN ([2]; role: inhibitor, kinact/KI relative to PVSN)	Found Ligand Adduct (mass shift) ([3]; intact protein LC-MS)	% SHP2 Reacted (overall adduct formation) ([3]; PVSN at 20 μM, compound 37 at 10 μM)	Compound	SHP2 activity recovery after jump-dilution, vanadate alone ([1]; 500 μM vanadate, compared to DMSO control)	residual SHP2 activity after jump-dilution ([1]; 100 μM compound (10) alone)	residual SHP2 activity after jump-dilution with vanadate ([1]; 100 μM compound (10) with 500 μM vanadate (competitive inhibitor))
–	–	–	–	[O]=[V]([O-])([O-])[O-] [vanadate, reference compound]	fully recovered activity	–	–
20.5 M⁻¹ s⁻¹	approximately 6 fold	206 Da	34%	C=C1C(=O)[C@@]2(C(=O)OC)CC(=O)C[C@@H]1C2 [Compound 10]	–	negligible residual enzymatic activity; also recorded: Little residual activity was detected	substantial residual activity; also recorded: protected from inactivation
